The values below are quoted from earlier work in article PMC3910343 (Nephrology Dialysis Transplantation, 2013).

Some results are limits rather than exact numbers.

For the data set the following is noted: oral cinacalcet.

For `C[C@@H](NCCCc1cccc(C(F)(F)F)c1)c1cccc2ccccc12` [cinacalcet], the initial half-life was about 6 h and the “time to steady state” value is recorded as at most 7 days.
